Data on 25 compounds can be found in patent publication US20220204497A1, “NOVEL COMPOUND HAVING ANTICANCER ACTIVITY, AND METHOD FOR PRODUCING SAME” (MEDICINAL BIOCONVERGENCE RESEARCH CENTER, priority 2019, published 2022).

The subject of data set [1] is A549 cells. Description: Cell viability by MTT method in A549 cells. Further details: concentration or dose not given beside the values. Particulars: 72 hours treatment. Format: cell-based. For orientation: Tetrazolium assays rely on reduction of a dye to a coloured formazan, in cell work by metabolically active cells.
Data set [2] has as its target T1, AIMP2-DX2 (Homo sapiens, UniProt Q13155).
T1 sequence (Q13155 1-251 isoform Q13155-2): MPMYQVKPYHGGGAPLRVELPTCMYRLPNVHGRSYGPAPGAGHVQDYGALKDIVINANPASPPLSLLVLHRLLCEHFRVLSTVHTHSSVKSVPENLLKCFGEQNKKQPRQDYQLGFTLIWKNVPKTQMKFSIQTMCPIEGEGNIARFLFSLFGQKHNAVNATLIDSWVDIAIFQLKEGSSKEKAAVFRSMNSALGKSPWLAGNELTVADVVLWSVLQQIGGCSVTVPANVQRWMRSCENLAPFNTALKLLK
Description: DX2-nanoluciferase assay (DX2 expression change) in transfected A549 cells. Particulars: for inhibition at 40 µM / inhibition at 10 µM: A549, 4 h; for inhibition at 40 µM: read-out: DX-Nanoluciferase activity (40 μM), 40 μM, 4 hours treatment, A549 cells transfected with nanoluciferase-DX2; for inhibition at 10 µM: read-out: DX-Nanoluciferase activity (10 μM), 10 μM, 4 hours treatment, A549 cells transfected with nanoluciferase-DX2.
Description: After cloning DX2 into a plasmid expressing nanoluciferase, the plasmid was transfected into A549 cells. Transfected cells were seeded 1×10^4 per well in a 96-well plate and stabilized for 12 hours. […] Cell viability was measured by the MTT method after 72 hours of treatment with each concentration of the compound in A549 cells.

Where [3] appears, read: inhibitory effect on AIMP2-DX2 expression.

`Cc1ccc(S(=O)(=O)N[C@@H](CC(C)C)C(=O)Nc2ncc(N3CCOCC3)s2)cc1` [Compound 86, (S)-4-Methyl-2-(4-methylphenylsulfonamido)-N-(5-morpholinothiazol-2-yl)pentanamide]: the “Cell Viability (% inhibition) (A549)” value in data set [1] came out at 20.70 ± 1.43%. For the same compound, the inhibition at 40 µM in data set [2] (setting [3]) worked out at 37.7 ± 6.09%.

Take `COc1ccc(-c2nnc(NC(=O)[C@H](CC(C)C)NS(=O)(=O)c3ccc(C)cc3)s2)cc1` [Compound 87, (S)—N-(5-(4-methoxyphenyl)-1,3,4-thiadiazol-2-yl)-4-methyl-2-(4-methylphenylsulfonamido)pentanamide]: the “Cell Viability (% inhibition) (A549)” value in data set [1] was 36.61 ± 3.85%. In data set [2] (setting [3]), the inhibition at 40 µM came out at 50.2 ± 7.05%.

As to `COc1ccc(-c2cc(NC(=O)[C@H](CC(C)C)NS(=O)(=O)c3ccc(C)cc3)no2)cc1` [Compound 88, (S)—N-(5-(4-methoxyphenyl)isoxazol-3-yl)-4-methyl-2-(4-methylphenylsulfonamido)pentanamide], in data set [1], the “Cell Viability (% inhibition) (A549)” value is given as 46.96 ± 4.60%. Besides, the inhibition at 40 µM in data set [2] (setting [3]) came out at 57 ± 8.83%.

In the case of `COc1ccc(-c2cc(NC(=O)[C@H](CC(C)C)NS(=O)(=O)c3ccc(C)cc3)on2)cc1` [Compound 89, (S)—N-(3-(4-methoxyphenyl)isoxazol-5-yl)-4-methyl-2-(4-methylphenylsulfonamido)pentanamide], the “Cell Viability (% inhibition) (A549)” value in data set [1] was found to be 98.73 ± 0.92%. Moreover, the inhibition at 40 µM in data set [2] (setting [3]) came to 47.5 ± 13.3%.

As to `Cc1ccc(S(=O)(=O)N[C@@H](CC(C)C)C(=O)Nc2nc(-c3ccc(C(F)(F)F)cc3)cs2)cc1` [Compound 90, (S)-4-Methyl-2-(4-methylphenylsulfonamido)-N-(4-(4-(trifluoromethyl)phenyl)thiazol-2-yl)pentanamide], the “Cell Viability (% inhibition) (A549)” value in data set [1] is given as 86.36 ± 0.64%. Further, in data set [2] (setting [3]), the inhibition at 40 µM was 65.4 ± 4.13%.

Take `COc1ccc(-c2csc(NC(=O)[C@H](CC(C)C)NS(=O)(=O)c3ccc(C)cc3)n2)cc1OC` [Compound 91, (S)—N-(4-(3,4-dimethoxyphenyl)thiazol-2-yl)-4-methyl-2-(4-methylphenylsulfonamido)pentanamide]: in data set [1], the “Cell Viability (% inhibition) (A549)” value was found to be 87.36 ± 2.13%. In addition, the inhibition at 40 µM in data set [2] (setting [3]) was 16.4 ± 8.65%.

Consider `Cc1ccc(S(=O)(=O)N[C@@H](CC(C)C)C(=O)Nc2nc(-c3ccc(F)cc3Br)cs2)cc1` [Compound 92, (S)—N-(4-(2-bromo-4-fluorophenyl)thiazol-2-yl)-4-methyl-2-(4-methylphenylsulfonamido)pentanamide], for which the “Cell Viability (% inhibition) (A549)” value in data set [1] was 100.05 ± 1.22%. The inhibition at 40 µM in data set [2] (setting [3]) was determined as 31.5 ± 6.84%.

Regarding `Cc1ccc(S(=O)(=O)N[C@@H](CC(C)C)C(=O)Oc2ccc(-c3csc(N)n3)cc2)cc1` [Compound 93, (S)-4-(2-Aminothiazol-4-yl)phenyl 4-methyl-2-(4-methylphenylsulfonamido)pentanoate], in data set [1], the “Cell Viability (% inhibition) (A549)” value is 48.85 ± 9.03%. The inhibition at 40 µM in data set [2] (setting [3]) is 22.5 ± 3.96%.

With `Cc1ccc(S(=O)(=O)N[C@@H](CC(C)C)C(=O)Nc2nc(-c3ccc(F)cc3)cs2)cc1` [Compound 94, (S)—N-(4-(4-fluorophenyl)thiazol-2-yl)-4-methyl-2-(4-methylphenylsulfonamido)pentanamide], the “Cell Viability (% inhibition) (A549)” value in data set [1] amounted to 101.42 ± 0.79%. Moreover, the inhibition at 40 µM in data set [2] (setting [3]) is 11.5 ± 7.25%.

For `Cc1ccc(S(=O)(=O)N[C@@H](CC(C)C)C(=O)Nc2nc(-c3ccc(OC(F)(F)F)cc3)cs2)cc1` [Compound 95, (S)-4-Methyl-2-(4-methylphenylsulfonamido)-N-(4-(4-(trifluoromethoxy)phenyl)thiazol-2-yl)pentanamide], in data set [1], the “Cell Viability (% inhibition) (A549)” value was found to be 92.97 ± 0.09%. Moreover, the inhibition at 40 µM in data set [2] (setting [3]) came out at 22.6 ± 5.29%.

For `Cc1ccc(S(=O)(=O)N[C@@H](CC(C)C)C(=O)Nc2nc(-c3ccc(O)cc3)cs2)cc1` [Compound 96, (S)—N-(4-(4-hydroxyphenyl)thiazol-2-yl)-4-methyl-2-(4-methylphenylsulfonamido)pentanamide], the “Cell Viability (% inhibition) (A549)” value in data set [1] turned out to be 93.07 ± 5.89%. Further, in data set [2] (setting [3]), the inhibition at 40 µM was 36.8 ± 9.16%.

On to `Cc1ccc(-c2csc(NC(=O)[C@H](CC(C)C)N(C)S(=O)(=O)c3ccccc3)n2)cc1` [Compound 97, (S)-4-Methyl-2-(methylphenylsulfonamido)-N-(4p-tolylthiazol-2-yl)pentanamide], for which the “Cell Viability (% inhibition) (A549)” value in data set [1] amounted to 67.10 ± 7.93%. In addition, the inhibition at 40 µM in data set [2] (setting [3]) was 15.1 ± 2.59%.

`Cc1ccc(S(=O)(=O)N[C@@H](Cc2ccc(OS(=O)(=O)c3ccc(C)cc3)cc2)C(=O)Nc2ccc(N3CCOCC3)cc2)cc1` [Compound 101, (S)-4-(2-(4-Methylphenylsulfonamido)-3-(4-morpholinophenylamino)-3-oxopropyl)phenyl 4-methylbenzenesulfonate]: in data set [1], the “Cell Viability (% inhibition) (A549)” value worked out at 35.10 ± 5.95%. The inhibition at 40 µM in data set [2] (setting [3]) was found to be 10.9 ± 4.88%.

Regarding `COc1ccc(-c2csc(NC(=O)[C@H](Cc3c[nH]cn3)NS(=O)(=O)c3ccc(Br)cc3)n2)cc1` [Compound 102, (S)-2-(4-Bromophenylsulfonamido)-3-(1H-Imidazol-4-yl)-N-(4-(4-methoxyphenyl)thiazol-2-yl)propanamide], in data set [1], the “Cell Viability (% inhibition) (A549)” value worked out at 91.03 ± 6.44%. For the same compound, the inhibition at 40 µM in data set [2] (setting [3]) was 27.2 ± 5.87%.

With `CON(C)C(=O)[C@H](CC(C)C)NS(=O)(=O)c1ccc(C)cc1` [Compound 103, (S)—N-methoxy-N,4-dimethyl-2-(4-methylphenylsulfonamido)pentanamide], in data set [1], the “Cell Viability (% inhibition) (A549)” value is given as −5.00 ± 6.69%. In data set [2] (setting [3]), the inhibition at 40 µM worked out at 63.7 ± 14.3%.

In the case of `CON(C)C(=O)[C@H](Cc1c[nH]c2ccccc12)NS(=O)(=O)c1ccc(C)cc1` [Compound 104, (S)-3-(1H-indol-3-yl)-N-methoxy-N-methyl-2-(4-methylphenylsulfonamido)propanamide], in data set [1], the “Cell Viability (% inhibition) (A549)” value was found to be 6.26 ± 7.67%. For the same compound, the inhibition at 40 µM in data set [2] (setting [3]) amounted to 64.3 ± 5.96%.

Consider `Cc1ccc(S(=O)(=O)N[C@@H](Cc2c[nH]c3ccccc23)C(=O)N2CCOCCOCCOCC2)cc1` [Compound 105, (S)—N-(3-(1H-indol-3-yl)-1-oxo-1-(1,4,7-trioxa-10-azacyclododecan-10-yl)propan-2-yl)-4-methylbenzenesulfonamide], for which, in data set [1], the “Cell Viability (% inhibition) (A549)” value was determined as 29.36 ± 7.43%. In data set [2] (setting [3]), the inhibition at 40 µM was 57.1 ± 1.56%.

As to `CC(C)(C)c1ccc(S(=O)(=O)N[C@@H](Cc2c[nH]c3ccccc23)C(=O)Nc2ccc(N3CCOCC3)cc2)cc1` [Compound 106, (S)-2-(4-tert-Butylphenylsulfonamido)-3-(1H-indol-3-yl)-N-(4-morpholinophenyl)propan amide], the “Cell Viability (% inhibition) (A549)” value in data set [1] amounted to 17.13 ± 5.35%. In addition, the “DX-Nanoluciferase activity (10 μM)” value in data set [2] (10 μM, 4 hours treatment, A549 cells transfected with nanoluciferase-DX2) was 68.14 ± 9.57 (10 μM).

Regarding `O=C(Nc1nc(-c2ccccc2Cl)cs1)[C@H](Cc1c[nH]c2ccccc12)NS(=O)(=O)c1ccc(Br)cc1` [Compound 107, (S)-2-(4-Bromophenylsulfonamido)-N-(4-(2-chlorophenyl)thiazol-2-yl)-3-(1H-indol-3-yl)propanamide], in data set [1], the “Cell Viability (% inhibition) (A549)” value came to 59.19 ± 2.09%. The inhibition at 40 µM in data set [2] (setting [3]) was determined as 37 ± 12.5%.

As to `O=C(Nc1nccs1)[C@H](Cc1c[nH]c2ccccc12)NS(=O)(=O)c1ccc(Br)cc1` [Compound 109, (S)-2-(4-Bromophenylsulfonamido)-3-(1H-indol-3-yl)-N-(thiazol-2-yl)propanamide], in data set [1], the “Cell Viability (% inhibition) (A549)” value is on record as 4.14 ± 1.04%. For the same compound, the inhibition at 40 µM in data set [2] (setting [3]) came to 57.5 ± 9.11%.

In the case of `Cc1cnc(NC(=O)[C@H](Cc2c[nH]c3ccccc23)NS(=O)(=O)c2ccc(Br)cc2)s1` [Compound 110, (S)-2-(4-Bromophenylsulfonamido)-3-(1H-indol-3-yl)-N-(5-methylthiazol-2-yl)propanamide], the “Cell Viability (% inhibition) (A549)” value in data set [1] worked out at 8.95 ± 3.66%. The inhibition at 40 µM in data set [2] (setting [3]) is 46.7 ± 7.18%.

Consider `Cc1ccc(S(=O)(=O)N[C@@H](Cc2c[nH]c3ccccc23)C(=O)Nc2nc(C)cs2)cc1` [Compound 111, (S)-3-(1H-indol-3-yl)-2-(4-methylphenylsulfonamido)-N-(4-methylthiazol-2-yl)propanamide], for which the “Cell Viability (% inhibition) (A549)” value in data set [1] turned out to be 11.65 ± 6.05%. Further, in data set [2] (40 μM, 4 hours treatment, A549 cells transfected with nanoluciferase-DX2, inhibitory effect on AIMP2-DX2 expression), the “DX-Nanoluciferase activity (40 μM)” value stood at 25.61 ± 22.32.

With `Cc1ccc(S(=O)(=O)N[C@@H](Cc2c[nH]c3ccccc23)C(=O)Nc2ncc(C)s2)cc1` [Compound 112, (S)-3-(1H-indol-3-yl)-2-(4-methylphenylsulfonamido)-N-(5-methylthiazol-2-yl)propanamide], the “Cell Viability (% inhibition) (A549)” value in data set [1] was 15.01 ± 6.55%. The inhibition at 40 µM in data set [2] (setting [3]) came out at 61.5 ± 5.19%.

For `COC(=O)c1ccc(S(=O)(=O)N[C@@H](Cc2c[nH]c3ccccc23)C(=O)Nc2ccc(N3CCOCC3)cc2)cc1` [Compound 113, (S)-Methyl 4-(N-(3-(1H-indol-3-yl)-1-(4-morpholinophenylamino)-1-oxopropan-2-yl)sulfamoyl)benzoate], in data set [1], the “Cell Viability (% inhibition) (A549)” value is 4.67 ± 3.85%. Also, in data set [2], the inhibition at 10 µM was 15.1 ± 6.22%.

Regarding `CCOC(=O)c1ccc(S(=O)(=O)N[C@@H](Cc2c[nH]c3ccccc23)C(=O)Nc2ccc(N3CCOCC3)cc2)cc1` [Compound 114, (S)-Ethyl 4-(N-(3-(1H-indol-3-yl)-1-(4-morpholinophenylamino)-1-oxopropan-2-yl)sulfamoyl)benzoate], in data set [1], the “Cell Viability (% inhibition) (A549)” value was determined as 47.88 ± 0.53%. Besides, the inhibition at 10 µM in data set [2] turned out to be 3.48 ± 8.58%.
